In article PMC9822400, “The Lipophilic Purine Nucleoside—Tdp1 Inhibitor—Enhances DNA Damage Induced by Topotecan In Vitro and Potentiates the Antitumor Effect of Topotecan In Vivo” (Molecules, 2022):
Entries after “also recorded” stand apart in the source; their conditions may differ.

What was measured:
[1] = molecular target: T1, purified recombinant human Tdp1 (Homo sapiens, UniProt Q9NUW8); assay: Real-time detection of Tdp1 activity (removal of BHQ1 from a 5′-FAM 16-nt oligonucleotide, fluorescence); format: biochemical; conditions: for IC50: 1.5 nM Tdp1, 50 nM oligonucleotide, 25 °C, three independent experiments
T1 construct: made in house
T1 sequence (Q9NUW8 whole entry): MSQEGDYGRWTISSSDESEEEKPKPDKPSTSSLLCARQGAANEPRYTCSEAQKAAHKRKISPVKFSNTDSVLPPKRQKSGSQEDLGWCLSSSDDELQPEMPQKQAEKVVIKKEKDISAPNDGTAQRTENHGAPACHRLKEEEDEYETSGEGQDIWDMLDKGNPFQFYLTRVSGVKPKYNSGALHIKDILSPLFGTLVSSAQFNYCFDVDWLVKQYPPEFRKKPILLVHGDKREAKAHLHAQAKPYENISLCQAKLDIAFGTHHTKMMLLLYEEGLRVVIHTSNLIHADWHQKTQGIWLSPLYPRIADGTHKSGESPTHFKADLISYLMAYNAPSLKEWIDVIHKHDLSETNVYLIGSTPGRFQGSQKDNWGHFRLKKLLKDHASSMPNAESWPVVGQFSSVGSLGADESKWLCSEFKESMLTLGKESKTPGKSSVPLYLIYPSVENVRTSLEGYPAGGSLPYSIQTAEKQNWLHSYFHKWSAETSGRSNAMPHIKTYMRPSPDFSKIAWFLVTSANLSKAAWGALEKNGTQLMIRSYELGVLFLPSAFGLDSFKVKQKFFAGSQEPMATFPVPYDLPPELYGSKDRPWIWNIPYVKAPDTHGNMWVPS
Experimental: In this work, four natural nucleosides (1-4) and […] aromatic lipophilic derivatives of purine nucleosides (5a-f, 6a-d) were tested for Tdp1 activity. The used test system was based on the enzyme’s ability to remove Black Hole Quencher 1 (BHQ1) from the 3′ end of a 5′ FAM 16-nt oligonucleotide. As a result, an increase in FAM fluorescence was detected and the obtained kinetic curves were used to calculate the IC50 parameter (the concentration of the inhibitor at which the enzyme activity is reduced by half). We have found potent Tdp1 inhibitors with IC50 in the range from 0.3 to 7 μM (Table 1).
Purified human recombinant Tdp1 was prepared as described earlier. Real-time detection of Tdp1 activity was reported in our previous work. The approach consists of a fluorescence intensity measurement of the reaction of quencher removal from the fluorophore-quencher coupled DNA oligonucleotide catalyzed by Tdp1 in the presence of the inhibitor (the control samples contained 1% DMSO). The biosensor was single-stranded oligonucleotide (5′-[FAM] AAC GTC AGGGTC TTC C [BHQ]-3′) containing fluorophore at the 5′ end (5,6-FAM) and a Black Hole Quencher 1 (BHQ) at the 3′ end, and was synthesized in the Laboratory of nucleic acid chemistry at the Institute of Chemical Biology and Fundamental Medicine SB RAS, Novosibirsk, Russia. The reactions were incubated at a constant temperature 25 °C in a POLARstar OPTIMA fluorimeter, BMG LABTECH, GmbH, to measure fluorescence every 55 s (Ex485/Em520 nm) during the linear phase (here, the data are from 0 to 8 min). […] The IC50 values were determined using a six-point concentration response curve in three independent experiments and calculated using MARS Data Analysis 2.0 (BMG LABTECH).

[2] = Cell culture cytotoxicity assay (EZ4U colorimetric test); format: cell-based; conditions: human, HeLa cells
Text: (§1) Tdp1 inhibitors are intended to be used in therapeutic cocktails to sensitize tumors to the action of anticancer Top1 poisons. […] To assess the toxicity of the compounds, their effect on the survival of the HeLa cell line (human cervical cancer) was studied using the colorimetric test of metabolic activity of cells EZ4U, which reflects the survival of cells in the presence of the studied compounds. The EZ4U assay is based on the ability of living cells to reduce the colorless tetrazolium salt XTT [sodium 3,3′-{1-(phenylamino)-carbonyl-3,4-tetrazolium) -bis(4-methoxy-6-nitro)-benzene sulfonic acid hydrate] to an orange water-soluble formazan product. This method was used to investigate the intrinsic cytotoxicity of promising inhibitors discovered in the course of this work, as well as the toxicity of their combination with Tpc.
(§2) Cytotoxicity of the compounds was examined on human cell lines HeLa using an EZ4U colorimetric test (Biomedica, Vienna, Austria). The HeLa cell line was obtained from the Russian Cell Culture Collection (RCCC) Institute of Cytology RAS, St. Petersburg, Russia. The cells were grown in DMEM/F12 medium (Gibco, Thermo Fisher Scientific, Waltham, MA, USA), with 1x GlutaMAX (Gibco, Thermo Fisher Scientific, Waltham, MA, USA), 50 IU/mL penicillin, 50 μg/mL streptomycin (MP Biomedicals), and in the presence of 10% fetal bovine serum (Biolot, Saint-Petersburg, Russia) in a 5% CO2 atmosphere. Since lipophilic nucleosides are soluble in DMSO, cells were grown in the presence of 1% DMSO in the control wells. After the formation of a 30–50% monolayer, the tested compounds were added to the medium, and the cell culture was monitored for 3 days. The values were normalized to their own control in each case. At least three independent experiments were carried out. The 50% cytotoxic concentration (CC50) was defined as the compound concentration that reduced the cell viability by 50% when compared to the untreated controls. The CC50 value was determined using OriginPro 8.6.0 software (OriginLab, Northampton, MA, USA). The measurements were carried out in three independent experiments.

human recombinant PARP1 = molecular target: T2, human recombinant PARP1 (Homo sapiens, UniProt P09874); assay: PARP1 activity by inclusion of α-[32P]-NAD+ in poly(ADP-ribose); format: biochemical; conditions: in the presence of 1 mM compound; read-out: Residual activity of PARP1
T2 construct: made in house
T2 sequence (P09874 whole entry): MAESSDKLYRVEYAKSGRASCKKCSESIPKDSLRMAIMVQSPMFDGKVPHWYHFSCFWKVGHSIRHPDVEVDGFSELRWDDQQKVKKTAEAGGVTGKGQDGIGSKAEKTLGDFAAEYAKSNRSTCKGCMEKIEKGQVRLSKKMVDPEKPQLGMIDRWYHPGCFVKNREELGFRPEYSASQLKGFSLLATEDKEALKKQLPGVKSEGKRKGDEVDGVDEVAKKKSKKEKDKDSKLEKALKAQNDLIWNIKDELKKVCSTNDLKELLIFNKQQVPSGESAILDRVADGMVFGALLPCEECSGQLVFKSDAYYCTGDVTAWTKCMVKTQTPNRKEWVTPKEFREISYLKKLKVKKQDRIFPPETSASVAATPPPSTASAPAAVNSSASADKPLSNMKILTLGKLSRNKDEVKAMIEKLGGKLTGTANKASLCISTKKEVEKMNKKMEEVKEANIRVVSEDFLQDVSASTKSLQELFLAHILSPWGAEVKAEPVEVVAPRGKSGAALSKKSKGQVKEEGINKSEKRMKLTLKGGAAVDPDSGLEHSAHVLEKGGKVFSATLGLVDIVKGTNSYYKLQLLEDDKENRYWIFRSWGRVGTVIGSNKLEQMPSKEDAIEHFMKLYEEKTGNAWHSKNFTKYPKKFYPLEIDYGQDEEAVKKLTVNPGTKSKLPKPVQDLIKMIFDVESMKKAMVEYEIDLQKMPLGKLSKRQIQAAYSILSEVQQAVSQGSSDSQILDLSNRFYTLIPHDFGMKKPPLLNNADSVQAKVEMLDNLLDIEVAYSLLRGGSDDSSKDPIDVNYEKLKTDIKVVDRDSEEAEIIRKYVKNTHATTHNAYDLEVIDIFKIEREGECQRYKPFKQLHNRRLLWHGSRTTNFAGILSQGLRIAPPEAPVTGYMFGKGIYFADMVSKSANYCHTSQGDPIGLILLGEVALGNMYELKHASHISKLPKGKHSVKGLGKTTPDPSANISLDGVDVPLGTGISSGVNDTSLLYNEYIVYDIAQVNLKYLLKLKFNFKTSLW
Experimental: (§3) Since it has previously been shown that nucleoside derivatives can inhibit enzymes of the PARP family, we also checked whether the studied compounds were able to inhibit the enzymes PARP1 and PARP2. […] Thus, when using our compounds, one cannot expect side effects from PARP1/2.
(§4) Purified human recombinant PARP1/2 [65] and [^32P] NAD^+ [27] were prepared as described earlier. The activity of PARP1/2 was evaluated by the rate of incorporation of the radioactive label into the acid-insoluble reaction product—PAR as described previously.

human recombinant PARP2 = molecular target: T3, human recombinant PARP2 (Homo sapiens, UniProt Q9UGN5); assay: PARP2 activity by inclusion of α-[32P]-NAD+ in poly(ADP-ribose); format: biochemical; conditions: in the presence of 1 mM compound; read-out: Residual activity of PARP2
T3 construct: made in house
T3 sequence (Q9UGN5 whole entry): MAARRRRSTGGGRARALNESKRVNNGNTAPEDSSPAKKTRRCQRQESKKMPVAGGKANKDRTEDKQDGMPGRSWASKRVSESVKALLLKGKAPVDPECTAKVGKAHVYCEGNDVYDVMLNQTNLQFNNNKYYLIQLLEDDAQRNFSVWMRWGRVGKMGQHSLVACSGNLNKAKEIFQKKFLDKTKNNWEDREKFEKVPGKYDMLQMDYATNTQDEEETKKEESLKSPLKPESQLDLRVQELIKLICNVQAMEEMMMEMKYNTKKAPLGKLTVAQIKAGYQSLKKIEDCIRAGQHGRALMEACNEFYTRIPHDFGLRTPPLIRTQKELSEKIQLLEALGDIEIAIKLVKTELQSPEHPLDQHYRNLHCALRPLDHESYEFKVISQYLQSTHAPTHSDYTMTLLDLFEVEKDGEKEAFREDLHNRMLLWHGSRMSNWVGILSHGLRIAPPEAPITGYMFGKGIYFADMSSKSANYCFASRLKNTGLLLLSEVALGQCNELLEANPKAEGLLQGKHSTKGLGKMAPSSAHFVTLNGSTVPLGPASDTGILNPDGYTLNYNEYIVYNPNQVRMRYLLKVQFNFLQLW
Experimental: as §3, §4

HeLa cells [3] = assay: Effect of compounds on topotecan cytotoxicity (EZ4U test); format: cell-based, human; conditions: compound 10 μM in combination with Tpc
Text: as §1
As already mentioned, we expected to increase the efficacy and/or reduce the dosage of Tpc with Tdp1 inhibitors. To do this, we studied the effect of nucleoside derivatives on Tpc cytotoxicity. […] We attribute this to the probable presence of protein targets other than Tdp1 in the cell.
as §2

HeLa cells [4] = assay: Alkaline Comet assay, accumulation of DNA damage; format: cell-based; conditions: for DNA in tail: Topotecan 10 μM alone (0 μM compound), 1 h
Text: We studied the effect of Tdp1 inhibitors 5f and 6d on the accumulation of DNA damage by single-cell gel electrophoresis (Comet assay). […] This method has proven to be a simple, fast, and a quite sensitive way to detect DNA damage at the level of a single cell, allowing one to analyze almost any eukaryotic cell culture. Several analysis options allow one to visualize various types of DNA damage: single- and double-stranded breaks and alkaline-labile sites. This allows this method to be widely used in fundamental studies of DNA damage and repair and in testing the genotoxicity of new chemical and pharmaceutical drugs in vitro and in vivo [51, 52]. To study potential drugs, the alkaline version of the method (pH > 13) proposed by Singh and co-authors is widely used. This method allows the detection of all types of DNA damage with high sensitivity. In cells with a large amount of DNA damage, the structural organization and integrity of DNA are disrupted, which leads to its relaxation and/or fragmentation. As a result, cellular DNA in an electric field gives the observed objects the appearance of a “comet”.
Before studying the effect of Tdp1 inhibitors on the accumulation of DNA damage, it was necessary to find out how long the generation of DNA damage by Tpc and their repair take place in HeLa cells. To do this, cell culture was treated with Tpc at 1, 10, and 100 μM concentrations for 30 min, 1, 2, and 3 h and the level of damage to individual cells was monitored by Comet assay. It was shown that Tpc caused the greatest amount of damage after 30 minutes’ treatment. After this time, the repair systems began to correct these lesions and as a result, after 3 h most of them have been eliminated (Figure S9). […] The level of DNA damage at this point was enough to be detected, the data were reproducible, and can be evaluated by the Comet assay. The effect could be enhanced by the tested compounds without leading to cell death. It was important for us to see this enhancement in the presence of our compounds.
HeLa cell culture was grown in a 24-well plate to a concentration of 0.05 million/mL, then treated with the tested compounds and incubated for 1 h. To obtain a cell suspension, the cells were treated with trypsin (30 µL in each well for 5 min at 37 °C), and then 200 µL of PBS + 10% FBS were added to each well.
The resulting cell suspension (50 µL) was mixed with 250 µL of a 1% solution of molten low melting agarose (CertifiedTM LMAgarose; BIO-RAD), 250 µL of this mixture was transferred to the slides pre-coated with a 1% normal melting agarose (Agarose; Helicon), and left for several minutes at 4 °C to solidify. The resulting slides were incubated in a lysing solution (2.5 M NaCl, 100 mM EDTA, 10 mM Tris base, 1% Triton, 5% DMSO, pH 10.0) for an hour at 4 °C. Then the slides were immersed in an electrophoretic buffer (300 mM NaOH, 1 mM EDTA, pH > 13) for 45 min at 4 °C. Electrophoresis was performed at 20 V, 450 mA for 10 min while cooling on ice. After that, the slides were immersed 2 times for 5 min in 0.4 M Tris-HCl pH 7.5 solution for neutralization, washed twice with cold water, and stained with SYBR Green I (excitation maximum at 497 nm, emission maximum at 520 nm; Thermo Fisher Scientific KK).
The images were obtained using a CELENA © S digital microscope (Logos Biosystems, Inc., Annandale, VA, USA) and analyzed with Comet analysis software (Trevigen, Inc., Gaithersburg, MD, USA. In all experiments, 2 slides were evaluated for each sample by counting at least 200 cells on the glass. As a parameter for measuring the level of DNA damage, the median value of the percentage of DNA in the tail was chosen (% Tail DNA = 100 × the intensity of DNA fluorescence in the tail of the comet/the intensity of fluorescence of the total DNA of the comet).

## OC[C@H]1O[C@@H](n2cnc3c(NCc4ccc(-c5ccccc5)cc4)ncnc32)[C@H](O)[C@@H]1O [5a]
[1]
  Tdp1 inhibition, in words: practically did not lead to a decrease in Tdp1 activity; also recorded: did not inhibit Tdp1
  IC50: > 50 µM
[2]
  CC50 at 3 days: > 100 µM
Human recombinant PARP1
  remaining activity at 1000 µM: 112 ± 11%
Human recombinant PARP2
  remaining activity at 1000 µM: 101 ± 24%

## OC[C@H]1O[C@@H](n2cnc3c(NCc4c5ccccc5cc5ccccc45)ncnc32)[C@H](O)[C@@H]1O [5c]
[1]
  IC50: 22 ± 3 µM
[2]
  CC50 at 3 days: 58 ± 2 µM
HeLa cells [3]
  Enhancement of Tpc Cytotoxicity by 10 μM Compounds: 2.2 Times
Human recombinant PARP1
  remaining activity at 1000 µM: 92 ± 14%
Human recombinant PARP2
  remaining activity at 1000 µM: 104 ± 16%

## OC[C@H]1O[C@@H](n2cnc3c(NCc4cc5ccc6cccc7ccc(c4)c5c67)ncnc32)[C@H](O)[C@@H]1O [5d]
[1]
  Tdp1 inhibition, in words: practically did not lead to a decrease in Tdp1 activity; also recorded: did not inhibit Tdp1
  IC50: > 50 µM
[2]
  CC50 at 3 days: 56 ± 10 µM
Human recombinant PARP1
  remaining activity at 1000 µM: 88 ± 21%
Human recombinant PARP2
  remaining activity at 1000 µM: 100 ± 15%

## O=C(OC[C@H]1O[C@@H](n2cnc3c(O)ncnc32)[C@H](OC(=O)c2ccccc2)[C@@H]1OC(=O)c1ccccc1)c1ccccc1 [6a, 2′,3′,5′-Tri-O-benzoylinosine]
[1]
  IC50: 7 ± 1 µM
[2]
  CC50 at 3 days: 58 ± 5 µM
HeLa cells [3]
  Enhancement of Tpc Cytotoxicity by 10 μM Compounds: 1.8 Times
Human recombinant PARP1
  remaining activity at 1000 µM: 87 ± 10%
Human recombinant PARP2
  remaining activity at 1000 µM: 96 ± 30%

## CC[C@@]1(O)C(=O)OCc2c1cc1n(c2=O)Cc2cc3c(CN(C)C)c(O)ccc3nc2-1 [Tpc, topotecan]
HeLa cells [4]; series of compound 5f
  DNA in tail: 35±5%
HeLa cells [4]; series of compound 6d
  DNA in tail: 39±1%
HeLa cells [4]; Tpc at 1, 10 and 100 μM
  Time after which most DNA lesions have been eliminated: 3 h
HeLa cells [4]; Tpc at 1, 10 and 100 μM for 30 min, 1, 2 and 3 h
  Treatment time with the greatest amount of DNA damage: 30 min

## Nc1nc2c(ncn2[C@@H]2O[C@H](CO)[C@@H](O)[C@H]2O)c(=O)[nH]1 [compound 1, reference compound]
[1]
  IC50: > 50 µM
Human recombinant PARP1
  remaining activity at 1000 µM: 86 ± 5%
Human recombinant PARP2
  remaining activity at 1000 µM: 91 ± 5%

## Nc1nc2c(ncn2[C@H]2C[C@H](O)[C@@H](CO)O2)c(=O)[nH]1 [compound 2, reference compound]
[1]
  IC50: > 50 µM
Human recombinant PARP1
  remaining activity at 1000 µM: 102 ± 11%
Human recombinant PARP2
  remaining activity at 1000 µM: 87 ± 18%

## Nc1ncnc2c1ncn2[C@@H]1O[C@H](CO)[C@@H](O)[C@H]1O [compound 3, reference compound]
[1]
  IC50: > 50 µM
Human recombinant PARP1
  remaining activity at 1000 µM: 94 ± 9%
Human recombinant PARP2
  remaining activity at 1000 µM: 95 ± 9%

## Nc1ncnc2c1ncn2[C@H]1C[C@H](O)[C@@H](CO)O1 [compound 4, reference compound]
[1]
  IC50: > 50 µM
Human recombinant PARP1
  remaining activity at 1000 µM: 84 ± 12%
Human recombinant PARP2
  remaining activity at 1000 µM: 79 ± 15%

## OC[C@H]1O[C@@H](n2cnc3c(NC(c4ccccc4)(c4ccccc4)c4ccccc4)ncnc32)[C@H](O)[C@@H]1O [compound 5b]
[1]
  Tdp1 inhibition, in words: practically did not lead to a decrease in Tdp1 activity
  IC50: > 50 µM
[2]
  CC50 at 3 days: 59.6 ± 0.6 µM
HeLa cells [3]
  Enhancement of Tpc Cytotoxicity by 10 μM Compounds: 1.7 Times
Human recombinant PARP1
  remaining activity at 1000 µM: 99 ± 8%
Human recombinant PARP2
  remaining activity at 1000 µM: 107 ± 9%

## O=C(OC[C@H]1O[C@@H](n2cnc3c(Cl)ncnc32)[C@H](OC(=O)c2ccccc2)[C@@H]1OC(=O)c1ccccc1)c1ccccc1 [compound 6b, 6-Chloro-2′,3′,5′-tri-O-benzoyl-β-D-ribofuranosylpurine riboside]
[1]
  IC50: 2 ± 0.6 µM
[2]
  CC50 at 3 days: 56 ± 26 µM
HeLa cells [3]
  Enhancement of Tpc Cytotoxicity by 10 μM Compounds: 1.9 Times
Human recombinant PARP1
  remaining activity at 1000 µM: 86 ± 8%
Human recombinant PARP2
  remaining activity at 1000 µM: 75 ± 16%
